# Read-outs that look alike come from different tables or passages of the source.
# Tested on: PopE F8 M-833 resistant clone (PfSTART1 N330K)
# Assay: Growth inhibition assay (72 h, LDH activity)
# Format: cell-based, Plasmodium falciparum
# Procedure: The drug was then removed, and parasites were allowed to recover. Another cycle of drug treatment (3 μM M-833) was then resumed. The resistant lines were cloned out by limiting dilution (diluting the culture into a 96-well plate to achieve an average of ~0.3 parasites per well), prior to growth inhibition assays and genomic DNA (gDNA) extraction (DNeasy Blood and Tissue kit (Qiagen)[18].
# Parasite growth assays with inhibitory compounds were performed as per[11] and are fully described in the Supplementary Information.
# Molecular biology and transfection of P. falciparum: CRISPR method.
# The full 5’ homology region of pfstart1 (either WT, N309K or N330K) was amplified from pPfSTART1-HA-2A-Neo-glmS with the same 5’ BglII primer and a new 3’ primer that replaced with PstI with SpeI and introduced a stop codon. The PCR product was then digested with BglII and SpeI and inserted into similarly digested p1.2 parasite vector2. The p1.2 vector had previously been inserted with a homology region amplified from the 3’ end of the pfstart1 gene (3’HB) to form a second homology block for double recombination. The primers used to amplify 3’HB are listed primers listed in […]
# 60 μg of p1.2-PfSTART1(WT/N309K/N330K) plasmid was linearised with KasI, precipitated in 3 M sodium acetate and ethanol (70% final concentration) overnight at -20°C. The DNA pellet was washed in cold 70% ethanol and resuspended in cytomix 3.
# 50 μ M of crRNA ( Table S 2) and 50 μM of tracRNA (Integrated DNA Technologies) were allowed to form a duplex (5 min at 95°C), and Cas9 enzyme (Integrated DNA Technologies) was added, and incubated for 20 min at room temperature 4. This crRNA -tracRNA -Cas9 mix was added to each DNA preparation and transfected to 3D7 ring parasites using the Bio -Rad Gene Pulser at 310 V and 950 μF.
# Parasites containing the transfected DNA were selected using 2.5 nM WR99210 (Jacobus). Parasites lines were cloned using limiting dilution. Correct integration was tested by PCR (using primer START_5’UTR.F and START_Int.R1 , Table S 2), and sequencing was done using the primers START_3F and START_Int.R2 (Table S 2).
# Growth inhibition assays. Synchronised ring-stage parasites (0.3-0.6% parasitemia, 2% haematocrit) were grown for 72 h in a serial-dilution of the compound under […]
# and compound 4. Note that M-833 was first purchased from MolPort (MolPort -002-267-916) then made in-house at WEHI: the differences observed in EC50s across experiments are attributed to the different batches of M -833. For some experiments, 0, 0.25 or 2.5 mM of glucosamine (GlcN) was also added. Experiments were set up in technical duplicates or triplicates. Following a freeze -thaw cycle, lactate dehydrogenase (LDH) activity was assessed as an indicator of parasite growt h 5. 30 μL of parasite culture was incubated for 30 min in the dark with 75 μL Malstat mixture (0.1 M Tris pH 9.0, 20 g/L lactic acid, pH 7.5, 0.2% Triton-X100, 0.5 g/L acetylpyridine adenine dinucleotide (APAD, Sigma), 200 μg/mL nitroblue tetrazolium (NBT; Sigma), 1 μg/mL phenozine ethosulfate (PES; Sigma)). Absorbance was then measured at 650 nm, transformed using the formula below, plotted against the logarithm of the concentrations, and a non-linear regression (log(inhibitor) vs. response, variable slope) was calculated using GraphPad Prism to assess the half-inhibitory […]
# Growth inhibition % = (1 − average(sample)− average(uRBC)) ∗ 100 […]
# The DMSO samples were also used to assess growth of parasite in the presence of 0.25 and 2.5 mM GlcN (normalised by DMSO in 0 mM GlcN).
# Egress, invasion & recovery assay. To measure egress, invasion and follow up recovery in the presence of different compounds, we adapted the method developed in6, using Hyp1-Nluc parasites7. These parasites episomally express the exported PEXEL protein Hyp1 (PF3D7_0113300) tagged with a NanoLuc luciferase (NLuc) and were selected with 2.5 nM WR99210 (Jacobus). Highly synchronised schizonts were […]
compound,measurement,setting,value
Cc1cc(Cl)c(S(=O)(=O)N2CCCC2)cc1OCC(=O)NC1CCCCC1 [M-833],Normalised to DMSO,"M-833 0.0390625 uM, Pop E-F8 replicate 1",109.671
same,Normalised to DMSO,"M-833 0.0390625 uM, PopE-F8 replicate 3",109.081
same,Normalised to DMSO,"M-833 0.078125 uM, Pop E-F8 replicate 1",111.583
same,Normalised to DMSO,"M-833 0.078125 uM, PopE-F8 replicate 3",106.576
same,Normalised to DMSO,"M-833 0.15625 uM, Pop E-F8 replicate 1",105.619
same,Normalised to DMSO,"M-833 0.15625 uM, PopE-F8 replicate 3",106.576
same,Normalised to DMSO,"M-833 0.3125 uM, Pop E-F8 replicate 1",109.939
same,Normalised to DMSO,"M-833 0.3125 uM, PopE-F8 replicate 3",106.263
same,Normalised to DMSO,"M-833 0.625 uM, Pop E-F8 replicate 1",106.384
same,Normalised to DMSO,"M-833 0.625 uM, PopE-F8 replicate 3",108.612
same,Normalised to DMSO,"M-833 1.25 uM, Pop E-F8 replicate 1",102.255
same,Normalised to DMSO,"M-833 1.25 uM, PopE-F8 replicate 3",105.48
same,Normalised to DMSO,"M-833 2.5 uM, Pop E-F8 replicate 1",99.4266
same,Normalised to DMSO,"M-833 2.5 uM, PopE-F8 replicate 3",94.0501
same,Normalised to DMSO,"M-833 5 uM, Pop E-F8 replicate 1",83.5245
same,Normalised to DMSO,"M-833 5 uM, PopE-F8 replicate 3",74.6347
same,Normalised to DMSO,"M-833 10 uM, Pop E-F8 replicate 1",58.7156
same,Normalised to DMSO,"M-833 10 uM, PopE-F8 replicate 3",75.7307
same,inhibition at 0.0390625 µM,"Plasmodium falciparum, M-833 0.0390625 uM, Pop E-F8 replicate 1, read-out: % Inhibition",-9.67%
same,inhibition at 0.0390625 µM,"Plasmodium falciparum, M-833 0.0390625 uM, PopE-F8 replicate 3, read-out: % Inhibition",-9.08%
same,inhibition at 0.078125 µM,"Plasmodium falciparum, M-833 0.078125 uM, Pop E-F8 replicate 1, read-out: % Inhibition",-11.6%
same,inhibition at 0.078125 µM,"Plasmodium falciparum, M-833 0.078125 uM, PopE-F8 replicate 3, read-out: % Inhibition",-6.58%
same,inhibition at 0.15625 µM,"Plasmodium falciparum, M-833 0.15625 uM, Pop E-F8 replicate 1, read-out: % Inhibition",-5.62%
same,inhibition at 0.15625 µM,"Plasmodium falciparum, M-833 0.15625 uM, PopE-F8 replicate 3, read-out: % Inhibition",-6.58%
same,inhibition at 0.3125 µM,"Plasmodium falciparum, M-833 0.3125 uM, Pop E-F8 replicate 1, read-out: % Inhibition",-9.94%
same,inhibition at 0.3125 µM,"Plasmodium falciparum, M-833 0.3125 uM, PopE-F8 replicate 3, read-out: % Inhibition",-6.26%
same,inhibition at 0.625 µM,"Plasmodium falciparum, M-833 0.625 uM, Pop E-F8 replicate 1, read-out: % Inhibition",-6.38%
same,inhibition at 0.625 µM,"Plasmodium falciparum, M-833 0.625 uM, PopE-F8 replicate 3, read-out: % Inhibition",-8.61%
same,inhibition at 1.25 µM,"Plasmodium falciparum, M-833 1.25 uM, Pop E-F8 replicate 1, read-out: % Inhibition",-2.26%
same,inhibition at 1.25 µM,"Plasmodium falciparum, M-833 1.25 uM, PopE-F8 replicate 3, read-out: % Inhibition",-5.48%
same,inhibition at 2.5 µM,"Plasmodium falciparum, M-833 2.5 uM, Pop E-F8 replicate 1, read-out: % Inhibition",0.573%
same,inhibition at 2.5 µM,"Plasmodium falciparum, M-833 2.5 uM, PopE-F8 replicate 3, read-out: % Inhibition",5.95%
same,inhibition at 5 µM,"Plasmodium falciparum, M-833 5 uM, Pop E-F8 replicate 1, read-out: % Inhibition",16.5%
same,inhibition at 5 µM,"Plasmodium falciparum, M-833 5 uM, PopE-F8 replicate 3, read-out: % Inhibition",25.4%
same,inhibition at 10 µM,"Plasmodium falciparum, M-833 10 uM, Pop E-F8 replicate 1, read-out: % Inhibition",41.3%
same,inhibition at 10 µM,"Plasmodium falciparum, M-833 10 uM, PopE-F8 replicate 3, read-out: % Inhibition",24.3%
same,inhibition at 0.0390625 µM,"Plasmodium falciparum, Pop E-F8 replicate 1, M-833 0.0390625 uM",-1.3%
same,inhibition at 0.078125 µM,"Plasmodium falciparum, Pop E-F8 replicate 1, M-833 0.078125 uM",-1.67%
same,inhibition at 0.15625 µM,"Plasmodium falciparum, Pop E-F8 replicate 1, M-833 0.15625 uM",1.93%
same,inhibition at 0.3125 µM,"Plasmodium falciparum, Pop E-F8 replicate 1, M-833 0.3125 uM",3.08%
same,inhibition at 0.625 µM,"Plasmodium falciparum, Pop E-F8 replicate 1, M-833 0.625 uM",3.36%
same,inhibition at 1.25 µM,"Plasmodium falciparum, Pop E-F8 replicate 1, M-833 1.25 uM",4.32%
same,inhibition at 2.5 µM,"Plasmodium falciparum, Pop E-F8 replicate 1, M-833 2.5 uM",11.8%
same,inhibition at 5 µM,"Plasmodium falciparum, Pop E-F8 replicate 1, M-833 5 uM",18.8%
same,inhibition at 10 µM,"Plasmodium falciparum, Pop E-F8 replicate 1, M-833 10 uM",41%
same,EC50,"Plasmodium falciparum, read-out: EC50 (95% confidence interval)",> 10 µM
same,Normalised to DMSO,"Pop E-F8 replicate 1, M-833 0.0390625 uM",101.305
same,Normalised to DMSO,"Pop E-F8 replicate 1, M-833 0.078125 uM",101.672
same,Normalised to DMSO,"Pop E-F8 replicate 1, M-833 0.15625 uM",98.0669
same,Normalised to DMSO,"Pop E-F8 replicate 1, M-833 0.3125 uM",96.9165
same,Normalised to DMSO,"Pop E-F8 replicate 1, M-833 0.625 uM",96.6437
same,Normalised to DMSO,"Pop E-F8 replicate 1, M-833 1.25 uM",95.6831
same,Normalised to DMSO,"Pop E-F8 replicate 1, M-833 2.5 uM",88.1997
same,Normalised to DMSO,"Pop E-F8 replicate 1, M-833 5 uM",81.2026
same,Normalised to DMSO,"Pop E-F8 replicate 1, M-833 10 uM",58.9777
